How the values were obtained:
Type in all cases: in vivo, rat
[1] = tested on: Choline acetyltransferase (ChAT); assay: ChAT immunopositive striatal neuron count after hypoxic-ischemic injury; details: adult Wistar rats, 3 ug GPE centrally via guide cannula 2 hours after hypoxia, striatum counted 3 days after injury, vs vehicle; FIG. 1
Description: (§1) The objective of these studies was to determine the effects of administering GPE on expression of ChAT in the presence or absence of CNS injury. The experiment involved treating the rats with a control vehicle or GPE 2 hours after a focal CNS injury. […] The degree and length of hypoxia, the ambient temperature and humidity were defined to standardise the degree of damage. The neuronal death is restricted to the side of the carotid ligation and is primarily in the hippocarnpus, dentate gyrus, striatum and lateral cortex of the ligated hemisphere. There is no neuronal loss in the contralateral hemisphere.
(§2) Specifically, nine pairs of adult wistar rats (280-320g) were prepared under halothane/O2 anaesthesia. The right side carotid artery was ligated. A guide cannula was placed on the dura 7.5 mm anterior from stereotaxic zero and 1.5 mm from midline on the right. The rats were allowed to recover for 1 hour and were then placed in an incubator with humidity 90+/−5% and temperature 31+/−0.5° C. for 1 hour before hypoxia. Oxygen concentration was reduced and maintained at 6+/−0.202% for 10 minutes. […]
(§3) The size of the striatal region used for the count was measured using an image analyser. […] Data were analysed with paired t-test and presented as mean +/− sem.

GAD [2] = assay: GAD immunopositive striatal neuron count after hypoxic-ischemic injury; details: adult Wistar rats, 3 ug GPE 2 hours after hypoxia, striatum counted 3 days after injury, vs vehicle; *p<0.05; FIG. 2
Description: The objective of these studies was to determine the effects of administering GPE on expression of GAD in the presence or absence of CNS injury. The experiment involved treating the rats with a control vehicle or GPE 2 hours after a focal CNS injury. […] The degree and length of hypoxia, the ambient temperature and humidity were defined to standardise the degree of damage. The neuronal death is restricted to the side of the carotid ligation and is primarily in the hippocampus, dentate gyrus, striatum and lateral cortex of the ligated hemisphere. There is no neuronal loss in the contralateral hemisphere. Specifically, nine pairs of adult wistar rats (280-320 g) were prepared under halothane/O2 anaesthesia. The right side carotid artery was ligated. A guide cannula was placed on the dura 7.5 mm anterior from stereotaxic zero and 1.5 mm from midline on the right. The rats were allowed to recover for 1 hour and were then placed in an incubator with humidity 90+/-5% and temperature 31+/-0.5° C. for 1 hour before hypoxia. Oxygen concentration was reduced and maintained at 6+/-0.202% for 10 minutes. […] The size of the striatal region used for the count was measured using an image analyser. […] Data were analysed with paired t-test and presented as mean +/- sem.

[3] = tested on: neuronal nitric oxide synthetase (NOS); assay: NOS immunopositive striatal neuron count after hypoxic-ischemic injury; details: adult Wistar rats, 3 ug GPE 2 hours after hypoxia, striatum counted 3 days after injury, vs vehicle; #p=0.072, *p=0.008; FIG. 3
Description: as §1, with “NOS” for “ChAT”, “hippocampus,” for “hippocarnpus,”
as §2, with “(280-320 g)” for “(280-320g)”
as §3

ChAT = ChAT immunoreactivity in striatum after quinolinic acid induced injury; details: adult male Wistar rats, 3 μg GPE into right lateral ventricle 2 hours after quinolinic acid, 3 days; no statistics; FIG. 6
Description: (§4) The objective of this study was to determine the effect of GPE administration on the expression of GAD, NOS and ChAT in the presence or absence of injury to the striatum induced by quinolinic acid. When injected into the striatum in experimental animals quinolinic acid produces lesions arising from the loss of striatopallidal and striatonigral GABAergic projection neurons, but spares the axons in the striatum (Science, 219, 316-318 [1983]). Rats were either treated with a control vehicle or GPE 2 hours after administration of quinolinic acid.
(§5) A total of 14 adult male Wistar rats (280-310 g) were used in this investigation. Eight rats were anaesthetized using halothane/O2 anaesthesia. An injection of quinolinic acid ([…], Sigma, dissolved in 4M NaOH) was stereotaxically placed in the dorsal region of the right striatum 0.8 mm anterior to bregma, 2.5 mm lateral to the midline and 4.0 mm ventral to the pial surface. […]
(§6) The size of the striatal region used for the count was measured using an image analyser (Mocha image analysis software). […] The data has not been analysed for statistical signigicance. Tissue from one of the GPE treated animals was unable to be counted.

NOS = NOS immunoreactivity in striatum after quinolinic acid induced injury; details: adult male Wistar rats, 3 days, FIG. 5
Description: as §4, §5, §6

GAD [4] = assay: GAD immunoreactivity in striatum after quinolinic acid induced injury; details: adult male Wistar rats, 3 μg GPE into right lateral ventricle 2 hours after quinolinic acid, 3 days, vs vehicle; no statistics; FIG. 4
Description: as §4, §5, §6

**Q.** How did the “number of ChAT immunopositive neurons” value [1] turn out when Gly-Pro-Glu [GPE] was run?
**A.** increased in both the right and left (uninjured) sides

**Q.** What about the “number of GAD immunopositive neurons” value (GAD [2]) of the same substance?
**A.** increased in the right side

**Q.** What about the “number of NOS immunopositive neurons” value [3] of the same substance?
**A.** increased in both the right and left (uninjured) sides

**Q.** And the “levels of ChAT (ChAT-positive striatal neurons)” value (ChAT)?
**A.** upregulated the levels of ChAT to above normal on the right (injured) side of the brain

**Q.** What about the “NOS enzyme levels relative to normal, left (non-injured) side” value (NOS; 3 μg GPE 2 hours after quinolinic acid, compared with normal controls) of the same substance?
**A.** restoring the enzyme levels to normal

**Q.** And the “NOS enzyme expression (NOS-positive striatal neurons)” value (NOS; 3 μg GPE into right lateral ventricle 2 hours after quinolinic acid, vs vehicle, no statistics)?
**A.** upregulation of enzyme expression on both sides of the brain

**Q.** And the “GAD expression (GAD-positive striatal neurons)” value (GAD [4])?
**A.** upregulation of GAD expression on both sides of the brain

From US6365573B1, “Regulation of neural enzymes” (Neuronz Ltd., priority 1996, dated 2002)
